In ChEMBL document CHEMBL4665836, “Overcoming β-Lactam resistance in Pseudomonas aeruginosa using non-canonical tobramycin-based antibiotic adjuvants” (2020):

Key:
Type in all cases: functional
[1] = test system: Pseudomonas aeruginosa; test: Potentiation of ceftazidime-induced antibacterial activity against carbapenem and colistin-resistant Pseudomonas aeruginosa 91433 clinical isolate assessed as ceftazidime MIC at 8 uM by checkerboard assay (reference value: 4 ug/ml)
[2] = test system: Pseudomonas aeruginosa; test: Potentiation of ceftazidime-induced antibacterial activity against wild type Pseudomonas aeruginosa PAO1 assessed as fold reduction in ceftazidime MIC at 8 uM
[3] = test system: Pseudomonas aeruginosa; test: Potentiation of aztreonam-induced antibacterial activity against carbapenem-resistant Pseudomonas aeruginosa 262-101856 clinical isolate assessed as aztreonam MIC at 8 uM by checkerboard assay (reference value: 32 ug/ml)
[4] = test system: Pseudomonas aeruginosa; test: Potentiation of ceftazidime-induced antibacterial activity against carbapenem-resistant Pseudomonas aeruginosa PAO200 harboring mexAB-oprM efflux deficient mutant assessed as ceftazidime MIC at 8 uM by checkerboard assay (reference value: 1 ug/ml)
[5] = test system: Pseudomonas aeruginosa; test: Potentiation of ceftazidime-induced antibacterial activity against carbapenem-resistant Pseudomonas aeruginosa 262-101856 clinical isolate assessed as ceftazidime MIC at 8 uM by checkerboard assay (reference value: 16 ug/ml)
[6] = test system: Pseudomonas aeruginosa; test: Potentiation of aztreonam-induced antibacterial activity against carbapenem-resistant Pseudomonas aeruginosa 109084 clinical isolate assessed as aztreonam MIC at 8 uM by checkerboard assay (reference value: 64 ug/ml)
[7] = test system: Pseudomonas aeruginosa; test: Potentiation of ceftazidime-induced antibacterial activity against carbapenem-resistant Pseudomonas aeruginosa 109084 clinical isolate assessed as ceftazidime MIC at 8 uM by checkerboard assay (reference value: 64 ug/ml)
[8] = test system: Pseudomonas aeruginosa; test: Potentiation of imipenem-induced antibacterial activity against wild-type Pseudomonas aeruginosa PAO1 assessed as imipenem MIC at 8 uM by checkerboard assay (reference value: 4 ug/ml)
[9] = test system: Pseudomonas aeruginosa; test: Potentiation of aztreonam-induced antibacterial activity against wild type Pseudomonas aeruginosa PAO1 assessed as fold reduction in aztreonam MIC at 8 uM
[10] = test system: Pseudomonas aeruginosa; test: Potentiation of imipenem-induced antibacterial activity against carbapenem-resistant Pseudomonas aeruginosa 108590 clinical isolate assessed as fold reduction in imipenem MIC at 8 uM in presence of beta-lactamase inhibitor, rele-bactam
[11] = test system: Pseudomonas aeruginosa; test: Potentiation of imipenem-induced antibacterial activity against carbapenem and colistin-resistant Pseudomonas aeruginosa 91433 clinical isolate assessed as imipenem MIC at 8 uM by checkerboard assay (reference value: 8 ug/ml)
[12] = test system: Pseudomonas aeruginosa; test: Potentiation of aztreonam-induced antibacterial activity against carbapenem-resistant Pseudomonas aeruginosa 86052 clinical isolate assessed as fold reduction in aztreonam MIC at 8 uM in presence of beta-lactamase inhibitor, avi-bactam
[13] = test system: Pseudomonas aeruginosa; test: Potentiation of ceftazidime-induced antibacterial activity against carbapenem-resistant Pseudomonas aeruginosa 107092 clinical isolate assessed as ceftazidime MIC at 8 uM by checkerboard assay (reference value: 128 ug/ml)
[14] = test system: Pseudomonas aeruginosa; test: Potentiation of ceftazidime-induced antibacterial activity against carbapenem and colistin-resistant Pseudomonas aeruginosa 114228 clinical isolate assessed as ceftazidime MIC at 8 uM by checkerboard assay (reference value: 8 ug/ml)
[15] = test system: Pseudomonas aeruginosa; test: Potentiation of imipenem-induced antibacterial activity against carbapenem-resistant Pseudomonas aeruginosa PAO200 harboring mexAB-oprM efflux deficient mutant assessed as imipenem MIC at 8 uM by checkerboard assay (reference value: 4 ug/ml)
[16] = test system: Pseudomonas aeruginosa; test: Potentiation of imipenem-induced antibacterial activity against carbapenem and colistin-resistant Pseudomonas aeruginosa 114228 clinical isolate assessed as imipenem MIC at 8 uM by checkerboard assay (reference value: 8 ug/ml)
[17] = test system: Pseudomonas aeruginosa; test: Potentiation of aztreonam-induced antibacterial activity against carbapenem-resistant Pseudomonas aeruginosa 107092 clinical isolate assessed as fold reduction in aztreonam MIC at 8 uM in presence of beta-lactamase inhibitor, avi-bactam
[18] = test system: Pseudomonas aeruginosa; test: Potentiation of imipenem-induced antibacterial activity against carbapenem-resistant Pseudomonas aeruginosa 100036 clinical isolate assessed as imipenem MIC at 8 uM by checkerboard assay (reference value: 8 ug/ml)
[19] = test system: Pseudomonas aeruginosa; test: Potentiation of ceftazidime-induced antibacterial activity against carbapenem-resistant Pseudomonas aeruginosa 264-104354 clinical isolate assessed as ceftazidime MIC at 8 uM by checkerboard assay (reference value: 128 ug/ml)
[20] = test system: Pseudomonas aeruginosa; test: Potentiation of aztreonam-induced antibacterial activity against carbapenem-resistant Pseudomonas aeruginosa PAO200 harboring mexAB-oprM efflux deficient mutant assessed as aztreonam MIC at 8 uM by checkerboard assay (reference value: 0.25 ug/ml)
[21] = test system: Pseudomonas aeruginosa; test: Potentiation of aztreonam-induced antibacterial activity against carbapenem-resistant Pseudomonas aeruginosa 100036 clinical isolate assessed as aztreonam MIC at 8 uM by checkerboard assay (reference value: 16 ug/ml)
[22] = test system: Pseudomonas aeruginosa; test: Potentiation of imipenem-induced antibacterial activity against carbapenem-resistant Pseudomonas aeruginosa 264-104354 clinical isolate assessed as imipenem MIC at 8 uM by checkerboard assay (reference value: 16 ug/ml)
[23] = test system: Pseudomonas aeruginosa; test: Potentiation of ceftazidime-induced antibacterial activity against carbapenem-resistant Pseudomonas aeruginosa 108590 clinical isolate assessed as fold reduction in ceftazidime MIC at 8 uM in presence of beta-lactamase inhibitor, avi-bactam
[24] = test system: Pseudomonas aeruginosa; test: Potentiation of ceftazidime-induced antibacterial activity against carbapenem-resistant Pseudomonas aeruginosa 100036 clinical isolate assessed as ceftazidime MIC at 8 uM by checkerboard assay (reference value: 8 ug/ml)
[25] = test system: Pseudomonas aeruginosa; test: Potentiation of imipenem-induced antibacterial activity against carbapenem-resistant Pseudomonas aeruginosa 259-96918 clinical isolate expressing MBL assessed as imipenem MIC at 8 uM by checkerboard assay (reference value: 64 ug/ml)
[26] = test system: Pseudomonas aeruginosa; test: Potentiation of imipenem-induced antibacterial activity against carbapenem-resistant Pseudomonas aeruginosa 260-97103 clinical isolate assessed as imipenem MIC at 8 uM by checkerboard assay (reference value: 16 ug/ml)
[27] = test system: Pseudomonas aeruginosa; test: Potentiation of ceftazidime-induced antibacterial activity against carbapenem-resistant Pseudomonas aeruginosa 86052 clinical isolate assessed as ceftazidime MIC at 8 uM by checkerboard assay (reference value: 64 ug/ml)
[28] = test system: Pseudomonas aeruginosa; test: Antibacterial activity against Pseudomonas aeruginosa PAO750 harboring mexAB-oprM/mexCD-oprJ/mexEF-oprN/mexJK/mexXY/opmH efflux deficient mutant
[29] = test system: Pseudomonas aeruginosa; test: Potentiation of ceftazidime-induced antibacterial activity against carbapenem-resistant Pseudomonas aeruginosa 108590 clinical isolate assessed as ceftazidime MIC at 8 uM by checkerboard assay (reference value: 32 ug/ml)
[30] = test system: Pseudomonas aeruginosa; test: Potentiation of imipenem-induced antibacterial activity against carbapenem-resistant Pseudomonas aeruginosa 107092 clinical isolate assessed as fold reduction in imipenem MIC at 8 uM in presence of beta-lactamase inhibitor, rele-bactam
[31] = test system: Pseudomonas aeruginosa; test: Potentiation of aztreonam-induced antibacterial activity against carbapenem-resistant Pseudomonas aeruginosa 264-104354 clinical isolate assessed as aztreonam MIC at 8 uM by checkerboard assay (reference value: 32 ug/ml)
[32] = test system: Pseudomonas aeruginosa; test: Potentiation of imipenem-induced antibacterial activity against carbapenem-resistant Pseudomonas aeruginosa 101885 clinical isolate assessed as imipenem MIC at 8 uM by checkerboard assay (reference value: 4 ug/ml)

| Compound | MIC [1] | fold change (FC) [2] | MIC [3] | MIC [4] | MIC [8] | fold change (FC) [9] | fold change (FC) [10] | MIC [11] | fold change (FC) [12] | MIC [15] | MIC [16] | fold change (FC) [17] | MIC [18] | MIC [22] | fold change (FC) [23] | MIC [25] | MIC [26] | MIC [28] | fold change (FC) [30] | MIC [32] | other results |
| --- | --- | --- | --- | --- | --- | --- | --- | --- | --- | --- | --- | --- | --- | --- | --- | --- | --- | --- | --- | --- | --- |
| NC[C@H]1O[C@H](O[C@H]2[C@H](OCCCCc3cn(CCCCO[C@@H]4[C@@H](O[C@H]5O[C@H](CO)[C@@H](O)[C@H](N)[C@H]5O)[C@H](N)C[C@H](N)[C@H]4O[C@H]4O[C@H](CN)[C@@H](O)C[C@H]4N)nn3)[C@@H](O[C@H]3O[C@H](CO)[C@@H](O)[C@H](N)[C@H]3O)[C@H](N)C[C@@H]2N)[C@H](N)C[C@@H]1O.O=C(O)C(F)(F)F.O=C(O)C(F)(F)F.O=C(O)C(F)(F)F.O=C(O)C(F)(F)F.O=C(O)C(F)(F)F.O=C(O)C(F)(F)F.O=C(O)C(F)(F)F.O=C(O)C(F)(F)F.O=C(O)C(F)(F)F.O=C(O)C(F)(F)F | 1 µg/mL | 2 | 8 µg/mL | 0.13 µg/mL | 1 µg/mL | 2 | 16 | 4 µg/mL | 16 | 1 µg/mL | 0.5 µg/mL | 16 | 4 µg/mL | 4 µg/mL | 16 | 32 µg/mL | 16 µg/mL | > 128 µg/mL | 16 | 4 µg/mL | MIC [5]: 2 µg/mL; MIC [6]: 8 µg/mL; MIC [7]: 32 µg/mL; MIC [13]: 32 µg/mL; MIC [14]: 1 µg/mL; MIC [19]: 32 µg/mL; MIC [20]: 0.03 µg/mL; MIC [21]: 2 µg/mL; MIC [24]: 2 µg/mL; MIC [27]: 64 µg/mL; MIC [29]: 8 µg/mL; MIC [31]: 8 µg/mL |
| Cl.Cl.Cl.Cl.Cl.NC[C@H]1O[C@H](O[C@H]2[C@H](OCCCCCCCCCCCCN3CCN(c4cc5c(cc4F)c(=O)c(C(=O)O)cn5C4CC4)CC3)[C@@H](O)[C@H](N)C[C@@H]2N)[C@H](N)C[C@@H]1O | 0.5 µg/mL | 2 | 16 µg/mL | 0.13 µg/mL | 1 µg/mL | 2 | 16 | 8 µg/mL | 16 | 1 µg/mL | 1 µg/mL | 16 | 4 µg/mL | 8 µg/mL | 16 | 16 µg/mL | 2 µg/mL | 2 µg/mL | 16 | 2 µg/mL | MIC [5]: 4 µg/mL; MIC [6]: 32 µg/mL; MIC [7]: 32 µg/mL; MIC [13]: 64 µg/mL; MIC [14]: 4 µg/mL; MIC [19]: 64 µg/mL; MIC [20]: 0.03 µg/mL; MIC [21]: 8 µg/mL; MIC [24]: 4 µg/mL; MIC [27]: 4 µg/mL; MIC [29]: 1 µg/mL; MIC [31]: 16 µg/mL |
| Cl.Cl.Cl.Cl.Cl.Cl.NC[C@H]1O[C@H](O[C@H]2[C@H](OCCCCCCCCCCCCN3CCN(c4cc5c(cc4F)c(=O)c(C(=O)O)cn5C4CC4)CC3)[C@@H](O[C@H]3O[C@H](CO)[C@@H](O)[C@H](N)[C@H]3O)[C@H](N)C[C@@H]2N)[C@H](N)C[C@@H]1O | 2 µg/mL | 2 | 4 µg/mL | 0.06 µg/mL | 0.5 µg/mL | 2 | 16 | 2 µg/mL | 16 | 1 µg/mL | 2 µg/mL | 16 | 2 µg/mL | 4 µg/mL | 16 | 16 µg/mL | 2 µg/mL | 2 µg/mL | 16 | 2 µg/mL | MIC [5]: 4 µg/mL; MIC [6]: 16 µg/mL; MIC [7]: 16 µg/mL; MIC [13]: 16 µg/mL; MIC [14]: 0.5 µg/mL; MIC [19]: 16 µg/mL; MIC [20]: 0.03 µg/mL; MIC [21]: 4 µg/mL; MIC [24]: 2 µg/mL; MIC [27]: 32 µg/mL; MIC [29]: 0.5 µg/mL; MIC [31]: 8 µg/mL |
| NC[C@H]1O[C@H](O[C@H]2[C@H](OCCCCCCCCN3CCCNCCNCCCNCC3)[C@@H](O[C@H]3O[C@H](CO)[C@@H](O)[C@H](N)[C@H]3O)[C@H](N)C[C@@H]2N)[C@H](N)C[C@@H]1O.O=C(O)C(F)(F)F.O=C(O)C(F)(F)F.O=C(O)C(F)(F)F.O=C(O)C(F)(F)F.O=C(O)C(F)(F)F.O=C(O)C(F)(F)F.O=C(O)C(F)(F)F.O=C(O)C(F)(F)F.O=C(O)C(F)(F)F | – | 2 | – | – | 2 µg/mL | 2 | 16 | 8 µg/mL | 16 | 2 µg/mL | 8 µg/mL | 16 | 8 µg/mL | 8 µg/mL | 16 | 64 µg/mL | 8 µg/mL | 128 µg/mL | 16 | 2 µg/mL | – |
| NC[C@H]1O[C@H](O[C@H]2[C@H](OCCCCCCCCN3CCCNCCNCCCNCC3)[C@@H](O)[C@H](N)C[C@@H]2N)[C@H](N)C[C@@H]1O.O=C(O)C(F)(F)F.O=C(O)C(F)(F)F.O=C(O)C(F)(F)F.O=C(O)C(F)(F)F.O=C(O)C(F)(F)F.O=C(O)C(F)(F)F.O=C(O)C(F)(F)F.O=C(O)C(F)(F)F | 2 µg/mL | 2 | 8 µg/mL | 0.13 µg/mL | 4 µg/mL | 2 | 16 | 4 µg/mL | 16 | 2 µg/mL | 8 µg/mL | 16 | 8 µg/mL | 16 µg/mL | 16 | 32 µg/mL | 8 µg/mL | > 128 µg/mL | 16 | 2 µg/mL | MIC [5]: 16 µg/mL; MIC [6]: 32 µg/mL; MIC [7]: 32 µg/mL; MIC [13]: 32 µg/mL; MIC [14]: 4 µg/mL; MIC [19]: 32 µg/mL; MIC [20]: 0.06 µg/mL; MIC [21]: 8 µg/mL; MIC [24]: 4 µg/mL; MIC [27]: 64 µg/mL; MIC [29]: 16 µg/mL; MIC [31]: 16 µg/mL |
